Values of other authors in patent US9320295B2, “Compositions containing non-polar compounds” (Virun, Inc., priority 2010, dated 2016).

Substance | HLB value
sucrose dipalmitate | 7.4
sucrose distearate | 3
sucrose monopalmitate | > 10
